# Laboratory results reported in patent US20250215039A1, “NUCLEOSIDES FOR TREATING CANCER” (PRIMEFOUR THERAPEUTICS, INC., priority 2022, published 2025).
# Read-outs that look alike come from different tables or passages of the source.
# Tested on: cancer cell lines
# Test: Cancer cell proliferation activity (CellTiterGlo, 72 h)
# Format: cell-based
# Details: 72 h, 72 h, read-out: IC50
# Outline: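 Readout is CellTiterGlo luminescence after 72 h compound exposure (0.1% DMSO final), started one day post-seeding, at 37 °C.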
smiles,measurement,setting,value
"Cc1cn([C@H]2C[C@H](O)[C@@](C#N)(CO)O2)c(=O)[nH]c1=O [Cpd. No. 123, (2R,3S,5R)-3-hydroxy-2-(hydroxymethyl)-5-(5-methyl-2,4-dioxo-3,4-dihydropyrimidin-1(2H)-yl)tetrahydrofuran-2-carbonitrile]",IC50,5637 cell line (bladder),> 50 µM
same,IC50,AS49 cell line (lung),> 50 µM
same,IC50,CLS439 cell line (bladder),> 50 µM
same,IC50,HS729 cell line (muscle),> 50 µM
same,IC50,JAR cell line (placenta),> 50 µM
same,IC50,"Homo sapiens, 786-0, 72 h, 786O cell line (kidney)",> 50 µM
same,IC50,"Homo sapiens, A2780, 72 h, A2780 cell line (ovary)",> 50 µM
same,IC50,"Homo sapiens, A-375, 72 h, A375 cell line (skin)",> 50 µM
same,IC50,"Homo sapiens, A-431, 72 h, A431 cell line (skin)",2.6 µM
same,IC50,"Homo sapiens, ASPC1, 72 h, ASPC1 cell line (pancreas)",> 50 µM
same,IC50,"Homo sapiens, BT-20, 72 h, BT20 cell line (breast)",> 50 µM
same,IC50,"Homo sapiens, CAKI-1, 72 h, CAKI1 cell line (kidney)",> 50 µM
same,IC50,"Homo sapiens, COLO 205, 72 h, COLO205 cell line (colon)",> 50 µM
same,IC50,"Homo sapiens, COLO-678, 72 h, COLO678 cell line (colon)",> 50 µM
same,IC50,"Homo sapiens, Ca-Ski, CASKI cell line (cervical)",> 50 µM
same,IC50,"Homo sapiens, Caco-2, 72 h, CACO2 cell line (colon)",> 50 µM
same,IC50,"Homo sapiens, Calu-6, 72 h, CALU6 cell line (lung)",> 50 µM
same,IC50,"Homo sapiens, EFO-21, 72 h, EFO21 cell line (ovary)",> 50 µM
same,IC50,"Homo sapiens, EJ-28, 72 h, EJ28 cell line (bladder)",> 50 µM
same,IC50,"Homo sapiens, HCT-15, 72 h, HCT15 cell line (colon)",> 50 µM
same,IC50,"Homo sapiens, HCT-116, 72 h, HCT116 cell line (colon)",> 50 µM
same,IC50,"Homo sapiens, HEK293, 72 h, HEK293 cell line (kidney)",> 50 µM
same,IC50,"Homo sapiens, HL-60, 72 h, HL-60 cell line (hematological)",> 50 µM
same,IC50,"Homo sapiens, HT-29, 72 h, HT29 cell line (colon)",> 50 µM
same,IC50,"Homo sapiens, HT-1080, 72 h, HT1080 cell line (connective tissue)",> 50 µM
same,IC50,"Homo sapiens, HeLa, HELA cell line (cervical)",> 50 µM
same,IC50,"Homo sapiens, Hs-578T, HS578T cell line, breast",> 50 µM
same,IC50,"Homo sapiens, IGROV-1, 72 h, IGROV1 cell line (ovary)",> 50 µM
same,IC50,"Homo sapiens, IMR-90, 72 h, IMR90 cell line, lung",> 50 µM
same,IC50,"Homo sapiens, J82, 72 h, J82 cell line (bladder)",4.88 µM
same,IC50,"Homo sapiens, JEG-3, 72 h, JEG3 cell line (placenta)",> 50 µM
same,IC50,"Homo sapiens, JIMT-1, 72 h, JIMT1 cell line (breast)",> 50 µM
same,IC50,"Homo sapiens, K562, 72 h, K-562 cell line (hematological)",> 50 µM
same,IC50,"Homo sapiens, Kasumi 1, 72 h, KASUMI-1 cell line (hematological)",> 50 µM
same,IC50,"Homo sapiens, L-363, 72 h, L-363 cell line (hematological)",> 50 µM
same,IC50,"Homo sapiens, MCF7, 72 h, MCF7 cell line (breast)",> 50 µM
same,IC50,"Homo sapiens, MDA-MB-231, 72 h, MDAMB231 cell line (breast)",> 50 µM
same,IC50,"Homo sapiens, MDA-MB-435, 72 h, MDAMB435 cell line (skin)",> 50 µM
same,IC50,"Homo sapiens, MDA-MB-468, 72 h, MDAMB468 cell line (breast)",> 50 µM
same,IC50,"Homo sapiens, MG-63, 72 h, MG63 cell line (bone)",> 50 µM
same,IC50,"Homo sapiens, MIA PaCa-2, 72 h, MIAPACA2 cell line (pancreas)",> 50 µM
same,IC50,"Homo sapiens, MV4-11, 72 h, MV4-11 cell line (hematological)",0.38 µM
same,IC50,"Homo sapiens, NCI-H292, 72 h, NCIH292 cell line (lung)",> 50 µM
same,IC50,"Homo sapiens, NCI-H460, 72 h, NCIH460 cell line (lung)",2.8 µM
same,IC50,"Homo sapiens, OVCAR-3, 72 h, OVCAR3 cell line (ovary)",> 50 µM
same,IC50,"Homo sapiens, OVCAR-4, 72 h, OVCAR4 cell line (ovary)",> 50 µM
same,IC50,"Homo sapiens, PANC-1, 72 h, PANC1 cell line (pancreas)",> 50 µM
same,IC50,"Homo sapiens, PC-3, 72 h, PC3 cell line (prostate)",> 50 µM
same,IC50,"Homo sapiens, Panc1005, 72 h, PANC1005 cell line (pancreas)",> 50 µM
same,IC50,"Homo sapiens, RD, RD cell line (muscle)",> 50 µM
same,IC50,"Homo sapiens, Ramos, RAMOS cell line (hematological)",> 50 µM
same,IC50,"Homo sapiens, SAOS-2, 72 h, SAOS2 cell line (bone)",> 50 µM
same,IC50,"Homo sapiens, SF-295, 72 h, SF295 cell line (brain)",> 50 µM
same,IC50,"Homo sapiens, SK-MEL-5, 72 h, SKMEL5 cell line, skin",> 50 µM
same,IC50,"Homo sapiens, SK-MEL-28, 72 h, SKMEL28 cell line (skin)",> 50 µM
same,IC50,"Homo sapiens, SK-N-AS, SKNAS cell line (brain)",> 50 µM
same,IC50,"Homo sapiens, SK-N-SH, SKNSH cell line (brain)",> 50 µM
same,IC50,"Homo sapiens, SK-OV-3, 72 h, SKOV3 cell line (ovary)",> 50 µM
same,IC50,"Homo sapiens, SU-DHL10, 72 h, SU-DHL-10 cell line (hematological)",> 50 µM
same,IC50,"Homo sapiens, SW-620, 72 h, SW620 cell line (colon)",> 50 µM
same,IC50,"Homo sapiens, T-24, 72 h, T24 cell line (bladder)",3.01 µM
same,IC50,"Homo sapiens, TE-671, 72 h, TE671 cell line (muscle)",> 50 µM
same,IC50,"Homo sapiens, U2OS, U2OS cell line (bone)",> 50 µM
same,IC50,"Homo sapiens, UMUC3, 72 h, UMUC3 cell line (bladder)",> 50 µM
same,IC50,"Homo sapiens, UO-31, 72 h, UO31 cell line (kidney)",> 50 µM
same,IC50,"MT-3, 72 h, MT3 cell line (breast)",3.77 µM
same,IC50,"NCI-H358M, NCIH358M cell line (lung)",> 50 µM
same,IC50,"PBMC, PBMC (hematological)",> 50 µM
